Results as given in patent publication US4526889A, “Epimeric azahomoerythromycin A derivative, intermediates and method of use” (Pfizer Inc., priority 1984, dated 1985).
In brackets after ≈: the same amount, converted by molar mass. Where two headings read alike, the source gives them in different places.

What was measured:
Assay in all cases: MIC in brain heart infusion (BHI) broth
E. Coli 125 = assay type: cell-based; details: Escherichia coli, BHI broth, read-out: MIC
From the text: (§1) Generally twelve 2 fold dilutions of the test compound are employed, with initial concentration of the test drug being in the range of 50 to 200 mcg./ml. The susceptibility (MIC) of the test organism is accepted as the lowest concentration of compound capable of producing complete inhibition of growth as judged by the naked eye. A comparison of the activity of 4"-epi-9-deoxo-9a-methyl-9a-aza-9a-homoerythromycin A (IV) with that of an erythromycin A control is shown in replicate in the Table I.

E. Coli 129 = assay type: cell-based; details: Escherichia coli, BHI broth, read-out: MIC
From the text: as §1

E. Coli 266 = assay type: cell-based; details: Escherichia coli, BHI broth, read-out: MIC
From the text: as §1

E. Coli 470 = assay type: cell-based; details: Escherichia coli
From the text: as §1

Ent. aerog. 040 = assay type: cell-based
From the text: as §1

Ent. cloac. 009 = assay type: cell-based
From the text: as §1

Kleb. oxy. 024 = assay type: cell-based
From the text: as §1

Kleb. pn. 009 = assay type: cell-based
From the text: as §1

Kleb. pn. 031 = assay type: cell-based
From the text: as §1

Neiss. sic. 000 = assay type: cell-based
From the text: as §1

Past. mult. 001 = assay type: cell-based
From the text: as §1

Prov. strua. 013 = assay type: cell-based
From the text: as §1

Serr. mar. 017 = assay type: cell-based
From the text: as §1

Staph. aur. 005 = assay type: cell-based; details: BHI broth, read-out: MIC
From the text: as §1

Staph. aur. 052 = assay type: cell-based; details: BHI broth, read-out: MIC
From the text: as §1

Staph. aur. 400 = assay type: cell-based
From the text: as §1

Staph. epi 111 = assay type: cell-based
From the text: as §1

Strep. faec. 006 = assay type: cell-based; details: BHI broth, read-out: MIC
From the text: as §1

Strep. pneumo. 012 = assay type: cell-based
From the text: as §1

Strep. pyog. 203 = assay type: cell-based
From the text: as §1

H. influ. 012 = assay type: cell-based, Hemophilus influenzae; details: Haemophilus influenzae
From the text: as §1

H. influ. 036 = assay type: cell-based, Hemophilus influenzae; details: Haemophilus influenzae
From the text: as §1

H. influ. 038 = assay type: cell-based, Hemophilus influenzae; details: Haemophilus influenzae
From the text: as §1

H. influ. 042 = assay type: cell-based, Hemophilus influenzae; details: Haemophilus influenzae
From the text: as §1

H. influ. 051 = assay type: cell-based, Hemophilus influenzae; details: Haemophilus influenzae
From the text: as §1

H. influ. 073 = assay type: cell-based, Hemophilus influenzae; details: Haemophilus influenzae
From the text: as §1

H. influ. 078 = assay type: cell-based, Hemophilus influenzae; details: Haemophilus influenzae
From the text: as §1

H. influ. 081 = assay type: cell-based, Hemophilus influenzae; details: Haemophilus influenzae
From the text: as §1

How did the MIC (E. Coli 125; 24 h, Day 1) turn out when `CC[C@H]1OC(=O)[C@H](C)[C@@H](O[C@H]2C[C@@](C)(OC)[C@@H](O)[C@H](C)O2)[C@H](C)[C@@H](O[C@@H]2O[C@H](C)C[C@H](N(C)C)[C@H]2O)[C@](C)(O)C[C@@H](C)C(=O)[C@H](C)[C@@H](O)[C@]1(C)O` [Erythromycin A] was run?
The MIC was greater than 50 µg/mL.

What about the MIC (E. Coli 125; 48 h, Day 2) of the same molecule?
The MIC was greater than 50 µg/mL.

What about the MIC (E. Coli 129; 24 h, Day 1) of the same molecule?
Its MIC is greater than 50 µg/mL.

What about the MIC (E. Coli 129; 48 h, Day 2) of the same molecule?
The MIC was greater than 50 µg/mL.

And the MIC (E. Coli 266; 24 h, Day 1)?
The MIC was greater than 50 µg/mL.

What about the MIC (E. Coli 266; 48 h, Day 2) of the same molecule?
Its MIC is greater than 50 µg/mL.

What about the MIC (E. Coli 470; 24 h) of the same molecule?
Its MIC is 3.12 µg/mL (≈ 4.25 µM).

What about the MIC (E. Coli 470; 48 h) of the same molecule?
The MIC was 3.12 µg/mL (≈ 4.25 µM).

And the MIC (Ent. aerog. 040; 24 h, Day 1)?
Its MIC is greater than 50 µg/mL.

And the MIC (Ent. aerog. 040; 48 h, Day 2)?
Its MIC is greater than 50 µg/mL.

And the MIC (Ent. cloac. 009; 24 h, Day 1)?
Its MIC is greater than 50 µg/mL.

And the MIC (Ent. cloac. 009; 48 h, Day 2)?
The MIC was greater than 50 µg/mL.

What about the MIC (Kleb. oxy. 024; 24 h, Day 1) of the same molecule?
Its MIC is greater than 50 µg/mL.

What about the MIC (Kleb. oxy. 024; 48 h, Day 2) of the same molecule?
Its MIC is greater than 50 µg/mL.

And the MIC (Kleb. pn. 009; 24 h, Day 1)?
The MIC was greater than 50 µg/mL.

What about the MIC (Kleb. pn. 009; 48 h, Day 2) of the same molecule?
The MIC was greater than 50 µg/mL.

And the MIC (Kleb. pn. 031; 24 h, Day 1)?
Its MIC is greater than 50 µg/mL.

What about the MIC (Kleb. pn. 031; 48 h, Day 2) of the same molecule?
The MIC was greater than 50 µg/mL.

What about the MIC (Neiss. sic. 000; 24 h) of the same molecule?
The MIC was 1.56 µg/mL (≈ 2.13 µM).

And the MIC (Neiss. sic. 000; 48 h)?
Its MIC is 3.12 µg/mL (≈ 4.25 µM).

What about the MIC (Past. mult. 001; 24 h) of the same molecule?
The MIC was 1.56 µg/mL (≈ 2.13 µM).

What about the MIC (Past. mult. 001; 48 h) of the same molecule?
Its MIC is 1.56 µg/mL (≈ 2.13 µM).

And the MIC (Prov. strua. 013; 24 h, Day 1)?
Its MIC is greater than 50 µg/mL.

And the MIC (Prov. strua. 013; 48 h, Day 2)?
The MIC was greater than 50 µg/mL.

What about the MIC (Serr. mar. 017; 24 h, Day 1) of the same molecule?
Its MIC is greater than 50 µg/mL.

And the MIC (Serr. mar. 017; 48 h, Day 2)?
The MIC was greater than 50 µg/mL.

What about the MIC (Staph. aur. 005; 24 h, Day 1) of the same molecule?
Its MIC is 0.05 µg/mL (≈ 0.0681 µM).

And the MIC (Staph. aur. 005; 48 h, Day 2)?
Its MIC is 0.05 µg/mL (≈ 0.0681 µM).

What about the MIC (Staph. aur. 052; 24 h, Day 1) of the same molecule?
The MIC was 0.1 µg/mL (≈ 0.136 µM).

What about the MIC (Staph. aur. 052; 48 h, Day 2) of the same molecule?
Its MIC is 0.1 µg/mL (≈ 0.136 µM).

And the MIC (Staph. aur. 400; 24 h)?
The MIC was 3.12 µg/mL (≈ 4.25 µM).

What about the MIC (Staph. aur. 400; 48 h) of the same molecule?
Its MIC is 6.25 µg/mL (≈ 8.52 µM).

What about the MIC (Staph. epi 111; 24 h, Day 1) of the same molecule?
Its MIC is 0.05 µg/mL (≈ 0.0681 µM).

What about the MIC (Staph. epi 111; 48 h, Day 2) of the same molecule?
The MIC was 0.05 µg/mL (≈ 0.0681 µM).

What about the MIC (Strep. faec. 006; 24 h, Day 1) of the same molecule?
Its MIC is 0.78 µg/mL (≈ 1.06 µM).

What about the MIC (Strep. faec. 006; 48 h, Day 2) of the same molecule?
The MIC was 0.78 µg/mL (≈ 1.06 µM).

And the MIC (Strep. pneumo. 012; 24 h, Day 1)?
The MIC was 0.025 µg/mL (≈ 0.0341 µM).

And the MIC (Strep. pneumo. 012; 48 h, Day 2)?
The MIC was 0.025 µg/mL (≈ 0.0341 µM).

What about the MIC (Strep. pyog. 203; 24 h, Day 1) of the same molecule?
Its MIC is 0.025 µg/mL (≈ 0.0341 µM).

And the MIC (Strep. pyog. 203; 48 h, Day 2)?
Its MIC is 0.025 µg/mL (≈ 0.0341 µM).

And the MIC (H. influ. 012; 24 h, Day 1)?
The MIC was 3.12 µg/mL (≈ 4.25 µM).

And the MIC (H. influ. 012; 48 h, Day 2)?
The MIC was 1.56 µg/mL (≈ 2.13 µM).

What about the MIC (H. influ. 036; 24 h, Day 1) of the same molecule?
Its MIC is 6.25 µg/mL (≈ 8.52 µM).

What about the MIC (H. influ. 036; 48 h, Day 2) of the same molecule?
The MIC was 3.12 µg/mL (≈ 4.25 µM).

What about the MIC (H. influ. 038; 24 h) of the same molecule?
The MIC was 6.25 µg/mL (≈ 8.52 µM).

And the MIC (H. influ. 038; 48 h)?
Its MIC is 3.12 µg/mL (≈ 4.25 µM).

What about the MIC (H. influ. 042; 24 h, Day 1) of the same molecule?
The MIC was 1.56 µg/mL (≈ 2.13 µM).

And the MIC (H. influ. 042; 48 h, Day 2)?
The MIC was 1.56 µg/mL (≈ 2.13 µM).

What about the MIC (H. influ. 051; 24 h) of the same molecule?
Its MIC is 3.12 µg/mL (≈ 4.25 µM).

What about the MIC (H. influ. 051; 48 h) of the same molecule?
Its MIC is 3.12 µg/mL (≈ 4.25 µM).

What about the MIC (H. influ. 073; 24 h) of the same molecule?
The MIC was 3.12 µg/mL (≈ 4.25 µM).

What about the MIC (H. influ. 073; 48 h) of the same molecule?
Its MIC is 3.12 µg/mL (≈ 4.25 µM).

What about the MIC (H. influ. 078; 24 h, Day 1) of the same molecule?
The MIC was 1.56 µg/mL (≈ 2.13 µM).

And the MIC (H. influ. 078; 48 h, Day 2)?
Its MIC is 1.56 µg/mL (≈ 2.13 µM).

And the MIC (H. influ. 081; 24 h)?
Its MIC is 3.12 µg/mL (≈ 4.25 µM).

What about the MIC (H. influ. 081; 48 h) of the same molecule?
The MIC was 3.12 µg/mL (≈ 4.25 µM).
